In PMC10987949, “Inhibition of HIV-1 release by ADAM metalloproteinase inhibitors” (Frontiers in Microbiology, 2024):

Key:
[1] = tested on: CD62L shedding; test: Soluble CD62L ELISA, unstimulated PBMC; format: cell-based, human; settings: Homo sapiens, PBMC; 10 μM compound; non-stimulated cells; ELISA; read-out: Shedding inhibition Non-stim.
Experimental: PBMC from de-identified healthy donors were obtained with informed consent from the Department of Transfusion Medicine, National Institutes of Health under Biological reagent Registry RD-14-IX-12 approved by NIH biological safety board. CD8-depleted PBMCs, either stimulated or non-stimulated with 10 μg/mL phytohaemagglutinin (PHA) or anti-CD3 antibody (with or without conjugated beads), were plated at 2×10^6 cells/ml in 48 well plates in RPMI 1640 + 10%FBS (R10) to a final volume of 1 mL in each well. IL-2 was added at a final concentration of 20 U/mL. CD3 antibody okt3 was used at ~0.2 μg/mL final concentration. […] Supernatants were collected and assessed using either the CD62L or TNF-α Duo Set ELISA kit according to manufacturer's instructions (R&D Systems, Inc.). The viability of cells treated with compounds was assessed by acridine orange / propidiom iodide (AO/PI Logosbio catalog F23001) staining using Luna-FL cell counter following the manufacture's instruction.^2 […] Supplemental Figure 1. CD62L shedding from unstimulated PBMC. A) Soluble CD62L in the supernatant of unstimulated PBMC was measured By ELISA (R&D systems, Inc) after 24 hour treatment in the presence of 10 μM of […]), aminopeptidase (AP) protease inhibitors, respectively, or their untreated controls. Statistics were calculated using unpaired parametric student t-test between individual treatment and DMSO control. […] B) Viability of PBMC treated with 10-500 μM of MMP inhibitors for 24hours. […] Untreated DMSO AEBSF 3,4-Dichloroisocouman Granzyme B Inhibitor II Granzyme B Inhibitor IV Aprotinin […] 3 4 CD62L shedding from unstimulated PBMC Soluble CD62L (ng/ml) Inhibitor Class […] GI254023X 10 GI254023X 100 […] GI254023X 1000 GW280264X 10 GW280264X 100 […] GW280264X 1000 Marimastat 10 Marimastat 100 Marimastat 250 […]

[2] = molecular target: T1, recombinant HIV-1 protease (Human immunodeficiency virus type 1 group M subtype B, UniProt P04585); test: HIV-1 protease fluorogenic substrate cleavage; format: biochemical; settings: 100nM saquinavir or nelfinavir; MMP inhibitors up to 10uM
T1 construct: recombinant HIV-1 protease; purchased Sigma-Aldrich SRP2151
Experimental: HIV-1 protease enzymatic activity was assayed in black 96-well plates at room temperature using a Synergy_h1 fluorescent plate reader with 340 nm excitation and 490 nm emission wavelengths (BioTek). Each enzymatic reaction consisted of a mixture of 100 ng of recombinant HIV-1 protease (Sigma-Aldrich catalog SRP2151), 5 μM concentration of a fluorogenic substrate Arg-Glu(EDANS)-[…]DABCYL)-Arg (Sigma-aldrich catalog H6660), and various concentrations of inhibitor compounds in 100 μL of assay buffer (0.15 M sodium chloride, 1.0 mM EDTA, 1.0 mM DTT, 0.1 M sodium acetate, pH 5.0). The fluorescence of the cleavage reaction was continuously read at every 30 s for a total of 40 min.

[3] = tested on: CD62L shedding; test: Soluble CD62L ELISA, anti-CD3/PHA stimulated PBMC or CD4 T cells; format: cell-based, human; settings: ELISA
Experimental: PBMC from de-identified healthy donors were obtained with informed consent from the Department of Transfusion Medicine, National Institutes of Health under Biological reagent Registry RD-14-IX-12 approved by NIH biological safety board. […] IL-2 was added at a final concentration of 20 U/mL. CD3 antibody okt3 was used at ~0.2 μg/mL final concentration. […] Supernatants were collected and assessed using either the CD62L or TNF-α Duo Set ELISA kit according to manufacturer’s instructions (R&D Systems, Inc.). The viability of cells treated with compounds was assessed by acridine orange / propidiom iodide (AO/PI Logosbio catalog F23001) staining using Luna-FL cell counter following the manufacture’s instruction.^2

[4] = tested on: HIV-1; test: Ex vivo HIV-1 release from CD4 T cells of HIV-1 infected individuals; format: cell-based; settings: 50 μM; CD4 T cells from six HIV-1 infected individuals; day 2 and 4
Experimental: PBMCs were collected from the study subjects in accordance with a clinical protocol approved by the Institutional Review Board of the National Institute of Allergy and Infectious Diseases, National Institutes of Health under protocol #02-I-0202. CD4^+ T cells were isolated from the PBMCs using a human CD4 T cell separation system (StemCell Technologies, Catalog 19052) and were cultured with medium alone or with plate-bound anti-CD3 and soluble anti-CD28 antibody in the absence or presence of 50 μM of indicated compounds for 48 h. The copy number of cell-free viron-associated HIV RNA in the culture supernatants was quantified using the Cobas Ampliprep/Cobas Taqman HIV-1 Test, Version 2.0 (Roche Diagnostics) with droplet digital PCR (ddPCR, BIO-RAD) on day 2 and 4 of stimulation.

SMILES: CNC(=O)[C@H](Cc1c[nH]c2ccccc12)NC(=O)[C@@H](CC(=O)NO)CC(C)C [GM6001]
- inhibition at 10 µM [1]: 20 to 50%
- effect on HIV protease cleavage of fluorogenic substrate [2]: none of the MMP inhibitors, including BB-94, prinomastat, GM6001 and DMDP, inhibited the activity of HIV protease
- inhibition at 10 µM ([3]; Homo sapiens, 10 μM compound, stimulated cells): 20 to 50%
- effect on CD62L shedding / soluble CD62L ([3]; stimulated PBMC or CD4 T cells): suppressed CD62L shedding
- effect on viral release (virion-associated HIV RNA) [4]: inhibited viral release in a portion of the samples
